Assay results from US4409314A, “Light-sensitive compounds, light-sensitive mixture, and light-sensitive copying material prepared therefrom” (Hoechst Aktiengesellschaft, priority 1980, dated 1983).
Read-outs that look alike come from different tables or passages of the source.

Columns and labels:
[1] = format: physicochemical; conditions: for Solubility (%): 4320 min; for Appearance of solution in ethylene glycol monomethyl ether: no precipitations even after 3 days
Procedure: (§1) In each case, 1 to 4 g of crystalline diazo compound were stirred in 25 g of ethylene glycol monomethyl ether, which is the most important solvent in coating technology, for 2 hours at room temperature and the mixture was allowed to stand for a further 70 hours without stirring, in order to complete the crystallization of possible amorphous constituents. The mixture was then filtered off with suction, and the filter residue was washed successively with 10 ml of methanol and 10 ml of ether, dried in vacuo, and its weight was determined. The solubilities in ethylene glycol monomethyl ether, listed in Table 3, were calculated from the difference relative to the quantity employed.

[2] = Solubility in n-butyl acetate; format: physicochemical; conditions: 1 g crystalline diazo compound stirred 2 hours in 25 g n-butyl acetate
Procedure: as §1
In a further widely used solvent, namel
1 g of the crystalline diazo compound was stirred for 2 hours in 25 g of
nbutyl acetate. The mixtures were then worked up as in Example 1.

[3] = 3 g of compound in 25 g solvent

| SMILES | Solubility (%) [1] | also measured |
| --- | --- | --- |
| CC(=O)c1ccc(OS(=O)(=O)c2cccc3c2C=CC(=[N+]=[N-])C3=O)cc1OS(=O)(=O)c1cccc2c1C=CC(=[N+]=[N-])C2=O [Compound 1] | 1.03% | – |
| CCCCC(=O)c1ccc(OS(=O)(=O)c2cccc3c2C=CC(=[N+]=[N-])C3=O)cc1OS(=O)(=O)c1cccc2c1C=CC(=[N+]=[N-])C2=O [Compound 2] | > 10.7% | Appearance of solution in ethylene glycol monomethyl ether [1, 3]: clear |
| CCCCC(CC)C(=O)c1ccc(OS(=O)(=O)c2cccc3c2C=CC(=[N+]=[N-])C3=O)cc1OS(=O)(=O)c1cccc2c1C=CC(=[N+]=[N-])C2=O (stereo not shown) [Compound 3] | > 13.8% | Appearance of solution in ethylene glycol monomethyl ether ([1]; 4 g of compound in 25 g solvent): clear |
| CCCCC(CC)C(=O)c1ccc(OS(=O)(=O)C2=CC(=[N+]=[N-])C(=O)c3ccccc32)cc1OS(=O)(=O)C1=CC(=[N+]=[N-])C(=O)c2ccccc21 (stereo not shown) [Compound 4] | 4.3% | – |
| CC(CC(=O)c1ccc(OS(=O)(=O)c2cccc3c2C=CC(=[N+]=[N-])C3=O)cc1OS(=O)(=O)c1cccc2c1C=CC(=[N+]=[N-])C2=O)CC(C)(C)C (stereo not shown) [Compound 5] | > 10.7% | Appearance of solution in ethylene glycol monomethyl ether [1, 3]: clear |
| CC(CC(=O)c1ccc(OS(=O)(=O)C2=CC(=[N+]=[N-])C(=O)c3ccccc32)cc1OS(=O)(=O)C1=CC(=[N+]=[N-])C(=O)c2ccccc21)CC(C)(C)C (stereo not shown) [Compound 6] | 10.5% | – |
| CCCCCCCCCCCCCCCC(=O)c1ccc(OS(=O)(=O)c2cccc3c2C=CC(=[N+]=[N-])C3=O)cc1OS(=O)(=O)c1cccc2c1C=CC(=[N+]=[N-])C2=O [Compound 7] | – | Solubility (%) in butyl acetate [2]: 1.03% |
| CCCCCCCCCCCCCCCC(=O)c1ccc(OS(=O)(=O)C2=CC(=[N+]=[N-])C(=O)c3ccccc32)cc1OS(=O)(=O)C1=CC(=[N+]=[N-])C(=O)c2ccccc21 [Compound 8] | – | Solubility (%) in butyl acetate [2]: 1.75% |
| COC(=O)c1ccc(OS(=O)(=O)c2cccc3c2C=CC(=[N+]=[N-])C3=O)cc1OS(=O)(=O)c1cccc2c1C=CC(=[N+]=[N-])C2=O [Compound 10] | 0.87% | – |
| CC(C)CCOC(=O)c1ccc(OS(=O)(=O)C2=CC(=[N+]=[N-])C(=O)c3ccccc32)cc1OS(=O)(=O)C1=CC(=[N+]=[N-])C(=O)c2ccccc21 [Compound 11] | 2.3% | – |
| CC(C)CCOC(=O)c1ccc(OS(=O)(=O)c2cccc3c2C=CC(=[N+]=[N-])C3=O)c(OS(=O)(=O)c2cccc3c2C=CC(=[N+]=[N-])C3=O)c1 [Compound 13] | 4.7% | – |
| CCOCCOC(=O)c1ccc(OS(=O)(=O)c2cccc3c2C=CC(=[N+]=[N-])C3=O)c(OS(=O)(=O)c2cccc3c2C=CC(=[N+]=[N-])C3=O)c1 [Compound 14] | 4.3% | – |
| CCOCCOC(=O)c1ccc(OS(=O)(=O)C2=CC(=[N+]=[N-])C(=O)c3ccccc32)c(OS(=O)(=O)C2=CC(=[N+]=[N-])C(=O)c3ccccc32)c1 [Compound 15] | 3.7% | – |
| CCOCCOC(=O)c1cc(OS(=O)(=O)c2cccc3c2C=CC(=[N+]=[N-])C3=O)cc(OS(=O)(=O)c2cccc3c2C=CC(=[N+]=[N-])C3=O)c1 [Compound 16] | 5.0% | – |
| CCCCCCCCCCCCOC(=O)c1ccc(OS(=O)(=O)c2cccc3c2C=CC(=[N+]=[N-])C3=O)cc1OS(=O)(=O)c1cccc2c1C=CC(=[N+]=[N-])C2=O [Compound 17] | 7.5% | Solubility (%) in butyl acetate [2]: 2.03% |
| CCCCCCCCCCCCOC(=O)c1cc(OS(=O)(=O)c2cccc3c2C=CC(=[N+]=[N-])C3=O)cc(OS(=O)(=O)c2cccc3c2C=CC(=[N+]=[N-])C3=O)c1 [Compound 18] | 4.6% | – |
| [N-]=[N+]=C1C=Cc2c(cccc2S(=O)(=O)Oc2ccc(C(=O)c3ccccc3)c(OS(=O)(=O)c3cccc4c3C=CC(=[N+]=[N-])C4=O)c2OS(=O)(=O)c2cccc3c2C=CC(=[N+]=[N-])C3=O)C1=O [V, tris-1,2-naphthoquinone-2-diazide-5-sulfonic acid ester of 2,3,4-trihydroxy-benzophenone, reference compound] | 1.0% | Solubility (%) in butyl acetate [2]: 0.50% |
